Here are results for 15 molecules from patent publication US20220041647A1, “ESTRA-1,3,5(10)-TRIENE COMPOUNDS CONDENSED IN POSITION 16(17) WITH A PYRAZOLE RING AS INHIBITORS OF 17-HSD1” (FORENDO PHARMA LTD, priority 2018, published 2022).

Format in all cases: biochemical
Assay [1] deals with HSD1 enzyme that is expressed in rabbit placenta tissue. Briefly: Inhibition of E1 to E2 conversion in rabbit placenta tissue homogenate. Conditions: compound 100 nM, 30 nM estrone, 1 mM β-NADPH, 30 min. The essentials: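 Rabbit placenta homogenate (20 mM KH2PO4, 1 mM EDTA, pH 7.4) incubated 30 min with 1 mM β-NADPH, 30 nM estrone plus 5 nM [3H]-estrone tracer, and inhibitor at 1 μM or 0.1 μM (1% DMSO). Stopped with TCA; estrone and estradiol resolved by HPLC with scintillation counting; % inhibition = 100 − % conversion relative to uninhibited control.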

For assay [2], the target named is T1, recombinant human 17β-HSD2 (Homo sapiens, UniProt P37059).
T1 construct: made in house; host or cells: Sd9 (Sf9) insect cells, baculovirus (Bac to Bac Expression System)
T1 sequence (P37059 1-387): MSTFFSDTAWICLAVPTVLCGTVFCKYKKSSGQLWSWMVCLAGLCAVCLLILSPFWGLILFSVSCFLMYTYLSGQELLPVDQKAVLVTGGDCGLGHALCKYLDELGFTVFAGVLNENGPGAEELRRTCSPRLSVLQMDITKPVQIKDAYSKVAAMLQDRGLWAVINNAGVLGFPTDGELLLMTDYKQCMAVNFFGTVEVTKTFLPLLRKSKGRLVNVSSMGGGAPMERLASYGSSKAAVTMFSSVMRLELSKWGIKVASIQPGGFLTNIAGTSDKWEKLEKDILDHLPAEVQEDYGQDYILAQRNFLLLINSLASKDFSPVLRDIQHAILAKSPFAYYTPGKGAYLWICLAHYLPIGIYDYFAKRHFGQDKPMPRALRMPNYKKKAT
The experiment in a line: Inhibition of recombinant human 17β-HSD2 (estradiol to estrone conversion, HPLC/radioactivity). Conditions: compound 1 μM; 50 nM estradiol, 1 mM NADH, 30 min RT. An outline of the steps: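 Membrane extract of Sf9 cells expressing recombinant human 17β-HSD2 (4 μg/ml), in 20 mM KH2PO4 pH 8.5 with 50 nM ^3H-spiked estradiol and 1 mM NADH, 30 min at RT, 1% DMSO. Compound at 1 μM or 0.1 μM; estrone formation by HPLC radioactivity, % inhibition relative to uninhibited conversion.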

The target in assay [3] is T2, recombinant human 17β-HSD1 (Homo sapiens, UniProt P14061).
T2 construct: made in house; host or cells: Sd9 (Sf9) insect cells, baculovirus (Bac to Bac Expression System)
T2 sequence (P14061 1-328): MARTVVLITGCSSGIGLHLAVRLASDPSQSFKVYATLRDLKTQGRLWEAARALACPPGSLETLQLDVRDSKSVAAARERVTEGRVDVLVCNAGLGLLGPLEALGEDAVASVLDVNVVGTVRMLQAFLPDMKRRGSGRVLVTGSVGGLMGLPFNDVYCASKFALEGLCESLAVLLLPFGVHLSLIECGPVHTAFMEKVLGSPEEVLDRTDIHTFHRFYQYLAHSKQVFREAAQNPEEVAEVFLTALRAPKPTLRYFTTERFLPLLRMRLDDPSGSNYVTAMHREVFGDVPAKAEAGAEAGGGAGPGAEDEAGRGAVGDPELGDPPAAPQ
The experiment in a line: Inhibition of recombinant human 17β-HSD1 (estrone to estradiol conversion, HPLC/radioactivity). The following applies: compound 100 nM; 30 nM estrone, 1 mM NADPH, 30 min RT. The essentials:
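Microsomal human 17β-HSD1 from Sf9 baculovirus (1 μg/ml) was incubated 30 min at RT in 20 mM KH2PO4 pH 7.4 with 30 nM ^3H-estrone, 1 mM NADPH and inhibitor at 1 μM or 0.1 μM (1% DMSO). Estrone and estradiol were separated by HPLC with radioactivity detection. % inhibition = 100 − % conversion relative to uninhibited control.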

One may read the inhibition as the drop in the measured response relative to a control, in per cent. In the case of `CN(C)C(=O)c1ccc(NC(=O)CC[C@@H]2c3c[nH]nc3[C@@]3(C)CCC4c5ccccc5CCC4C23)nc1` (stereo partly drawn) [Compound 183, N,N-dimethyl-6-(3-((8aS,12S)-8a-methyl-1,2,6b,7,8,8a,10,12,12a,12b-decahydronaphtho[2′,1′:4,5]indeno[1,2-c]pyrazol-12-yl)propanamido)nicotinamide], in assay [1], the “Rabbit placenta inhibition % @100 nM” value was determined as 50%. In addition, the inhibition at 1 µM in assay [2] stood at 10%. Also, in assay [3], the inhibition at 0.1 µM came out at 91%.
Taken in the same sequence, the figures for `Cn1ccc(NC(=O)CC[C@@H]2c3c[nH]nc3[C@@]3(C)CCC4c5ccccc5CCC4C23)n1` (stereo partly drawn) [Compound 186, 3-((8aS,12S)-8a-methyl-1,2,6b,7,8,8a,10,12,12a,12b-decahydronaphtho[2′,1′:4,5]indeno[1,2-c]pyrazol-12-yl)-N-(1-methyl-1H-pyrazol-3-yl)propanamide] were 11%, 1% and 81%.
Taken in the same sequence, the figures for `C[C@]12CCC3c4ccccc4CCC3C1[C@H](CCC(=O)NC1CCC1)c1c[nH]nc12` (stereo partly drawn) [Compound 192, N-cyclobutyl-3-((8aS,12S)-8a-methyl-1,2,6b,7,8,8a,10,12,12a,12b-decahydronaphtho[2′,1′:4,5]indeno[1,2-c]pyrazol-12-yl)propanamide] were 14%, 2% and 86%.
As for `Cc1ccc(NC(=O)CC[C@@H]2c3c[nH]nc3[C@@]3(C)CCC4c5ccccc5CCC4C23)nn1` (stereo partly drawn) [Compound 195, 3-((8aS,12S)-8a-methyl-1,2,6b,7,8,8a,10,12,12a,12b-decahydronaphtho[2′,1′:4,5]indeno[1,2-c]pyrazol-12-yl)-N-(6-methylpyridazin-3-yl)propanamide], the “Rabbit placenta inhibition % @100 nM” value in assay [1] stood at 61%. In assay [2], the inhibition at 1 µM came out at 10%. Moreover, in assay [3], the inhibition at 0.1 µM stood at 70%.
On the same counts, the results for `CN1CCN(c2ccc(NC(=O)CC[C@@H]3c4c[nH]nc4[C@@]4(C)CCC5c6ccccc6CCC5C34)nc2)CC1` (stereo partly drawn) [Compound 198, 3-((8aS,12S)-8a-methyl-1,2,6b,7,8,8a,10,12,12a,12b-decahydronaphtho[2′,1′:4,5]indeno[1,2-c]pyrazol-12-yl)-N-(5-(4-methylpiperazin-1-yl)pyridin-2-yl)propanamide] are 77%, 18% and 88%.
Taken in the same sequence, the figures for `C[C@]12CCC3c4cccc(F)c4CCC3C1[C@H](CCC(=O)Nc1cccc(F)n1)c1c[nH]nc12` (stereo partly drawn) [Compound 204, 3-((8aS,12S)-3-fluoro-8a-methyl-1,2,6b,7,8,8a,10,12,12a,12b-decahydronaphtho[2′,1′:4,5]indeno[1,2-c]pyrazol-12-yl)-N-(6-fluoropyridin-2-yl)propanamide] were 63%, 1% and 96%.
On the same counts, the results for `CC(C)(C)c1cc(NC(=O)CC[C@@H]2c3c[nH]nc3[C@@]3(C)CCC4c5cccc(F)c5CCC4C23)no1` (stereo partly drawn) [Compound 213, N-(5-(tert-butyl)isoxazol-3-yl)-3-((8aS,12S)-3-fluoro-8a-methyl-1,2,6b,7,8,8a,10,12,12a,12b-decahydronaphtho[2′,1′:4,5]indeno[1,2-c]pyrazol-12-yl)propanamide] are 25%, 10% and 93%.
Take `C[C@]12CCC3c4cccc(F)c4CCC3C1[C@H](CCC(=O)NC1CCOC1)c1c[nH]nc12` (stereo partly drawn) [Compound 225, 3-((8aS,12S)-3-fluoro-8a-methyl-1,2,6b,7,8,8a,10,12,12a,12b-decahydronaphtho[2′,1′:4,5]indeno[1,2-c]pyrazol-12-yl)-N-(tetrahydrofuran-3-yl)propanamide]: the “Rabbit placenta inhibition % @100 nM” value in assay [1] came out at 10%. Besides, in assay [2], the inhibition at 1 µM is -2%. In assay [3], the inhibition at 0.1 µM was determined as 88%.
On the same counts, the results for `Cc1ccc(NC(=O)CC[C@@H]2c3c[nH]nc3[C@@]3(C)CCC4c5cccc(F)c5CCC4C23)nn1` (stereo partly drawn) [Compound 228, 3-((8aS,12S)-3-fluoro-8a-methyl-1,2,6b,7,8,8a,10,12,12a,12b-decahydronaphtho[2′,1′:4,5]indeno[1,2-c]pyrazol-12-yl)-N-(6-methylpyridazin-3-yl)propanamide] are 67%, 3% and 87%.
On the same counts, the results for `C[C@]12CCC3c4cccc(F)c4CCC3C1[C@H](CCC(=O)Nc1cccnn1)c1c[nH]nc12` (stereo partly drawn) [Compound 237, 3-((8aS,12S)-3-fluoro-8a-methyl-1,2,6b,7,8,8a,10,12,12a,12b-decahydronaphtho[2′,1′:4,5]indeno[1,2-c]pyrazol-12-yl)-N-(pyridazin-3-yl)propanamide] are 58%, 1% and 84%.
Taken in the same sequence, the figures for `C[C@]12CCC3c4cccc(F)c4CCC3C1[C@H](CCC(=O)Nc1cc(N3CCOCC3)ccn1)c1c[nH]nc12` (stereo partly drawn) [Compound 240, 3-((8aS,12S)-3-fluoro-8a-methyl-1,2,6b,7,8,8a,10,12,12a,12b-decahydronaphtho[2′,1′:4,5]indeno[1,2-c]pyrazol-12-yl)-N-(4-morpholinopyridin-2-yl)propanamide] were 35%, 2% and 84%.
Take `Cc1cc(NC(=O)CC[C@@H]2c3c[nH]nc3[C@@]3(C)CCC4c5ccccc5CCC4C23)no1` (stereo partly drawn) [Compound 246, 3-((8aS,12S)-8a-methyl-1,2,6b,7,8,8a,10,12,12a,12b-decahydronaphtho[2′,1′:4,5]indeno[1,2-c]pyrazol-12-yl)-N-(5-methylisoxazol-3-yl)propanamide]: in assay [1], the “Rabbit placenta inhibition % @100 nM” value is reported as 19%. Moreover, the inhibition at 1 µM in assay [2] turned out to be 15%. For the same molecule, the inhibition at 0.1 µM in assay [3] amounted to 80%.
Taken in the same sequence, the figures for `C[C@]12CCC3c4ccccc4CCC3C1[C@H](CCC(=O)Nc1ccc(N3CCOCC3)cn1)c1c[nH]nc12` (stereo partly drawn) [Compound 252, 3-((8aS,12S)-8a-methyl-1,2,6b,7,8,8a,10,12,12a,12b-decahydronaphtho[2′,1′:4,5]indeno[1,2-c]pyrazol-12-yl)-N-(5-morpholinopyridin-2-yl)propanamide] were 46%, 7% and 90%.
`C[C@]12CCC3c4ccccc4CCC3C1[C@H](CCC(=O)Nc1cccnn1)c1c[nH]nc12` (stereo partly drawn) [Compound 255, 3-((8aS,12S)-8a-methyl-1,2,6b,7,8,8a,10,12,12a,12b-decahydronaphtho[2′,1′:4,5]indeno[1,2-c]pyrazol-12-yl)-N-(pyridazin-3-yl)propanamide]: the “Rabbit placenta inhibition % @100 nM” value in assay [1] turned out to be 46%. Further, the inhibition at 1 µM in assay [2] was 0%. For the same molecule, the inhibition at 0.1 µM in assay [3] is 66%.
On the same counts, the results for `C[C@]12CCC3c4ccccc4CCC3C1[C@H](CCC(=O)Nc1cccc(F)n1)c1c[nH]nc12` (stereo partly drawn) [Compound 258, N-(6-fluoropyridin-2-yl)-3-((8aS,12S)-8a-methyl-1,2,6b,7,8,8a,10,12,12a,12b-decahydronaphtho[2′,1′:4,5]indeno[1,2-c]pyrazol-12-yl)propanamide] are 43%, 2% and 90%.
